Counter-ions that a name gives are not always drawn.
system: Human mast cells (CHMC); test: LD Tryptase release assay in CHMC (mast cell activation induced by FcγR cross-linking); assay type: cell-based; details: Homo sapiens, Mast cell, anti-IgG stimulation, activity of tryptase released upon degranulation
Experimental: Compounds were assayed for inhibition of mast cell activation induced by FcγR cross-linking by measuring the activity of tryptase released upon degranulation as follows:
Human mast cells were cultured and differentiated from […] progenitor cell as described in U.S. Patent Publication No. 2005-234049, incorporated herein by reference. For example, 65 μL of various concentrations of the compound to be assayed were prepared in MT (137 mM NaCl, 2.7 mM KCl, 1.8 mM CaCl2, 1.0 mM MgCl2, 5.6 mM Glucose, 20 mM Hepes (pH 7.4), 0.1% Bovine Serum Albumin, (Sigma A4503)) containing 2% MeOH and 1% DMSO, or control buffer were added to duplicate 96-well V-bottom plates. Pelleted and re-suspended (in warm MT) CHMC cells (65 μL) were added to each 96-well plate, mixed and incubated for 1 hour at 37° C. 25 μl of 6× anti-IgG Rabbit anti-human IgG, Affinity purified (Bethyl Laboratories Cat No. A80-105A3) final concentration 1 μg/mL, was added to the test wells. MT (25 μL) was added to control wells. After a 60-minute incubation at 37° C., cells and cell debris were pelleted by centrifugation at 1000 rpm for 10 min and tryptase and leukotriene C4 levels were measured.
To measure tryptase levels, 25 μL of supernatant from each well was transferred to a fresh 96-well black bottom plate, to which 100 μL of fresh tryptase substrate solution [(Z-Ala-Lys-Arg-AMC2TFA; Enzyme Systems Products, #AMC-246)] 1:2000 in tryptase assay buffer [0.1 M Hepes (pH 7.5), 10% w/v Glycerol, 10 μM Heparin (Sigma H-4898) 0.01% NaN3] was added. After 30 minute incubation at room temperature, the optical density of the plates is measured at 355 nm/460 nm on a spectrophotometric plate reader. Table 1 provides the IC50 values.
Compounds of the disclosure were assayed for their ability to inhibit mast cell activation induced by FcγR cross-linking by measuring the activity of tryptase released upon degranulation. The IC50 values for the LD Tryptase assay are presented in Table 2, in which “0” is >100 μM; “A” is 1-100 μM; “B” is 0.5-1 μM; “C” is 0.1-0.5 μM; and “D” is less than 0.1 μM: […]

First: COc1cc(Nc2ncc(F)c(Nc3ccc4c(n3)NC(=O)C(C)(C)O4)n2)cnc1N1CCOCC1 [Compound 21, N4-(2,2-dimethyl-3,4-dihydro-3-oxo-2H-pyrido[3,2-b][1,4]oxazin-6-yl)-5-fluoro-N2-[5-methoxy-6-morpholinopyridin-3-yl]-2,4-pyrimidinediamine]
Second: Cc1cc(Nc2ncc(F)c(Nc3ccc4c(n3)NC(=O)C(C)(C)O4)n2)ccc1N1CCOCC1 [Compound 23, N4-(2,2-dimethyl-3,4-dihydro-3-oxo-2H-pyrido[3,2-b][1,4]oxazin-6-yl)-5-fluoro-N2-[3-methyl-4-morpholinophenyl]-2,4-pyrimidinediamine]
The IC50 of the first is higher: 0.1 to 0.5 µM for the first, less than 0.1 µM for the second. The second is the more potent here.

`CC1(C)Oc2ccc(Nc3nc(Nc4ccc(N5CCC(N)CC5)cc4)ncc3F)nc2NC1=O` [Compound 90, N4-(2,2-dimethyl-3,4-dihydro-3-oxo-2H-pyrido[3,2-b][1,4]oxazin-6-yl)-5-fluoro-N2-[4-(4-aminopiperidin-1-yl)phenyl]-2,4-pyrimidinediamine] and `CCOC1CCN(c2ccc(Nc3ncc(F)c(Nc4ccc5c(n4)NC(=O)C(C)(C)O5)n3)cc2)CC1` [Compound 85, N4-(2,2-dimethyl-3,4-dihydro-3-oxo-2H-pyrido[3,2-b][1,4]oxazin-6-yl)-5-fluoro-N2-[4-(4-ethoxypiperidin-1-yl)phenyl]-2,4-pyrimidinediamine] fall in the same range of IC50: 0.1 to 0.5 µM for the first, 0.1 to 0.5 µM for the second.

`C[C@H]1CN(c2ccc(Nc3ncc(F)c(Nc4ccc5c(n4)NC(=O)CO5)n3)cn2)[C@@H](C)CO1` (racemic) [Compound 104, rac-N4-(3,4-dihydro-3-oxo-2H-pyrido[3,2-b][1,4]oxazin-6-yl)-N2-[6-(2,5-dimethylmorpholino)pyridin-3-yl]-5-fluoro-2,4-pyrimidinediamine] and `C[C@@H]1CN(c2ccc(Nc3ncc(F)c(Nc4ccc5c(n4)NC(=O)CO5)n3)cn2)C[C@H](C)O1` [Compound 95, rac-Cis-N4-(3,4-dihydro-3-oxo-2H-pyrido[3,2-b][1,4]oxazin-6-yl)-N2-[6-(2,6-dimethylmorpholino)pyridin-3-yl]-5-fluoro-2,4-pyrimidinediamine] fall in the same range of IC50: 0.1 to 0.5 µM for the first, 0.1 to 0.5 µM for the second.

`O=C1COc2ccc(Nc3nc(Nc4ccc(N5CCOCC5)c(F)c4)ncc3F)nc2N1` [Compound 34, N4-(3,4-dihydro-3-oxo-2H-pyrido[3,2-b][1,4]oxazin-6-yl)-5-fluoro-N2-[3-fluoro-4-morpholinophenyl]-2,4-pyrimidinediamine] and `CC1(C)Oc2ccc(Nc3nc(Nc4ccc(N5CCOCC5)c(F)c4)ncc3F)nc2NC1=O` [Compound 26, N4-(2,2-dimethyl-3,4-dihydro-3-oxo-2H-pyrido[3,2-b][1,4]oxazin-6-yl)-5-fluoro-N2-[3-fluoro-4-morpholinophenyl]-2,4-pyrimidinediamine] cannot be ordered by IC50: less than 0.1 µM for the first, less than 0.1 µM for the second.

First: CC1(C)Oc2ccc(Nc3nc(Nc4ccc5nc(-c6ccncc6)[nH]c5c4)ncc3F)nc2NC1=O [Compound 132, N4-(2,2-dimethyl-3,4-dihydro-3-oxo-2H-pyrido[3,2-b][1,4]oxazin-6-yl)-5-fluoro-N2-[2-(pyridin-4-yl)-1H-benzo[d]imidazol-6-yl]-2,4-pyrimidinediamine]
Second: CN(C)c1ccc(Nc2ncc(F)c(Nc3ccc4c(n3)NC(=O)C(C)(C)O4)n2)cn1 [Compound 147, N4-(2,2-dimethyl-3,4-dihydro-3-oxo-2H-pyrido[3,2-b][1,4]oxazin-6-yl)-5-fluoro-N2-[6-(dimethylamino)pyridin-3-yl]-2,4-pyrimidinediamine]
The IC50 of the first is lower: less than 0.1 µM for the first, 0.1 to 0.5 µM for the second. The first is the more potent here.

First: COCCN(C)c1ccc(Nc2ncc(F)c(Nc3ccc4c(n3)NC(=O)CO4)n2)cn1 [Compound 98]
Second: CN(C[C@H]1CCCO1)c1ccc(Nc2ncc(F)c(Nc3ccc4c(n3)NC(=O)C(C)(C)O4)n2)cn1 [Compound 111]
The IC50 of the first is higher: 0.5 to 1 µM for the first, 0.1 to 0.5 µM for the second.

Compared with `CC1(C)Oc2ccc(Nc3nc(Nc4ccc(N5CCO[C@H](CCO)C5)cc4)ncc3F)nc2NC1=O` (stereo in doubt) [Compound 126, N4-(2,2-dimethyl-3,4-dihydro-3-oxo-2H-pyrido[3,2-b][1,4]oxazin-6-yl)-5-fluoro-N2-[4-((2-hydroxyethyl)morpholino)phenyl]-2,4-pyrimidinediamine], `CC1(C)Oc2ccc(Nc3nc(Nc4ccc(N5CCO[C@@H](CO)C5)cc4)ncc3F)nc2NC1=O` [Compound 128, N4-(2,2-dimethyl-3,4-dihydro-3-oxo-2H-pyrido[3,2-b][1,4]oxazin-6-yl)-5-fluoro-N2-[4-((2-hydroxymethyl)morpholino)phenyl]-2,4-pyrimidinediamine] is lower in IC50: 0.1 to 0.5 µM for the first, less than 0.1 µM for the second.

`C[C@H]1COCCN1c1ccc(Nc2ncc(F)c(Nc3ccc4c(n3)NC(=O)CO4)n2)cc1` [Compound 119, N4-(3,4-dihydro-3-oxo-2H-pyrido[3,2-b][1,4]oxazin-6-yl)-5-fluoro-N2-[4-((3S)-3-methylmorpholino)phenyl]-2,4-pyrimidinediamine] and `O=C1COc2ccc(Nc3nc(Nc4ccc(N5CCO[C@H](CCO)C5)cc4)ncc3F)nc2N1` (stereo in doubt) [Compound 125, N4-(3,4-dihydro-3-oxo-2H-pyrido[3,2-b][1,4]oxazin-6-yl)-5-fluoro-N2-[4-((2-hydroxyethyl)morpholino)phenyl]-2,4-pyrimidinediamine] cannot be ordered by IC50: less than 0.1 µM for the first, less than 0.1 µM for the second.

First: CCOCC1CN(c2ccc(Nc3ncc(F)c(Nc4ccc5c(n4)NC(=O)C(C)(C)O5)n3)cc2)CCO1 (stereo in doubt) [Compound 42, N4-(2,2-dimethyl-3,4-dihydro-3-oxo-2H-pyrido[3,2-b][1,4]oxazin-6-yl)-5-fluoro-N2-[4-(((2S)-2-ethoxymethyl)morpholino)phenyl]-2,4-pyrimidinediamine]
Second: C[C@@H]1COCCN1c1ccc(Nc2ncc(F)c(Nc3ccc4c(n3)NC(=O)C(C)(C)O4)n2)cn1 [Compound 50, N4-(2,2-dimethyl-3,4-dihydro-3-oxo-2H-pyrido[3,2-b][1,4]oxazin-6-yl)-5-fluoro-N2-[6-((3R)-3-methylmorpholino)pyridin-3-yl]-2,4-pyrimidinediamine]
The IC50 of the first is higher: 0.1 to 0.5 µM for the first, less than 0.1 µM for the second.

First: CCN(CC)C1CCN(c2ccc(Nc3ncc(F)c(Nc4ccc5c(n4)NC(=O)C(C)(C)O5)n3)cn2)CC1 [Compound 61, N4-(2,2-dimethyl-3,4-dihydro-3-oxo-2H-pyrido[3,2-b][1,4]oxazin-6-yl)-5-fluoro-N2-[6-(4-(diethylamino)piperidin-1-yl)pyridin-3-yl]-2,4-pyrimidinediamine]
Second: CN1CCN(c2ccc(Nc3ncc(F)c(Nc4ccc5c(n4)NC(=O)C(C)(C)O5)n3)cn2)CC1 [Compound 18, N4-(2,2-dimethyl-3,4-dihydro-3-oxo-2H-pyrido[3,2-b][1,4]oxazin-6-yl)-5-fluoro-N2-[6-(4-methylpiperazin-1-yl)pyridin-3-yl]-2,4-pyrimidinediamine]
The IC50 of the first is lower: 0.1 to 0.5 µM for the first, 0.5 to 1 µM for the second.

First: CN(c1ccc(Nc2ncc(F)c(Nc3ccc4c(n3)NC(=O)C(C)(C)O4)n2)cn1)C1CCOCC1 [Compound 143, N4-(2,2-dimethyl-3,4-dihydro-3-oxo-2H-pyrido[3,2-b][1,4]oxazin-6-yl)-5-fluoro-N2-[6-(methyl(tetrahydro-2H-pyran-4-yl)amino)pyridin-3-yl]-2,4-pyrimidinediamine]
Second: CC1(C)Oc2ccc(Nc3nc(Nc4ccc(N5CCN6CCC5CC6)nc4)ncc3F)nc2NC1=O [Compound 62, N4-(2,2-dimethyl-3,4-dihydro-3-oxo-2H-pyrido[3,2-b][1,4]oxazin-6-yl)-5-fluoro-N2-[6-(1,4-diazabicyclo[3.2.2]nonan-4-yl)pyridin-3-yl]-2,4-pyrimidinediamine]
The IC50 of the first is lower: less than 0.1 µM for the first, 0.5 to 1 µM for the second.

Compared with `Cc1cc(Nc2ncc(F)c(Nc3ccc4c(n3)NC(=O)CO4)n2)cnc1N1CCOCC1` [Compound 11, N4-(3,4-dihydro-3-oxo-2H-pyrido[3,2-b][1,4]oxazin-6-yl)-5-fluoro-N2-[5-methyl-6-morpholinopyridin-3-yl]-2,4-pyrimidinediamine], `CC1(C)CN(c2ncc(Nc3ncc(F)c(Nc4ccc5c(n4)NC(=O)CO5)n3)cc2F)CCO1` [Compound 17, N4-(3,4-dihydro-3-oxo-2H-pyrido[3,2-b][1,4]oxazin-6-yl)-5-fluoro-N2-[5-fluoro-6-(2,2-dimethylmorpholino)pyridin-3-yl]-2,4-pyrimidinediamine] is higher in IC50: less than 0.1 µM for the first, 0.1 to 0.5 µM for the second. The first is the more potent here.

same assay, conditions: anti-IgG stimulation, activity of tryptase released upon degranulation

With `CC1(C)Oc2ccc(Nc3nc(Nc4ccc(N5CCOCC5)c(F)c4)ncc3F)nc2N(COP(=O)(O)O)C1=O` [Compound 113, N4-(2,2-dimethyl-3,4-dihydro-4-[(dihydrogenphosphonoxy)methyl]-3-oxo-2H-pyrido[3,2-b][1,4]oxazin-6-yl)-5-fluoro-N2-(3-fluoro-4-morpholinophenyl)-2,4-pyrimidinediamine disodium salt] the IC50 was 1 to 100 µM.

Source: US8618095B2 (Rigel Pharmaceuticals, Inc., priority 2010, dated 2013)
